The text below walks through data of patent US8143408B2, “N-(8-heteroaryltetrahydronaphtalene-2yl) or N-(5-heteroarylchromane-3-yl) carboxamide derivatives for the treatment of pain” (AstraZeneca AB, priority 2007, dated 2012).

SMILES strings stand for the structures.

T1 sequence (Q15858 whole entry): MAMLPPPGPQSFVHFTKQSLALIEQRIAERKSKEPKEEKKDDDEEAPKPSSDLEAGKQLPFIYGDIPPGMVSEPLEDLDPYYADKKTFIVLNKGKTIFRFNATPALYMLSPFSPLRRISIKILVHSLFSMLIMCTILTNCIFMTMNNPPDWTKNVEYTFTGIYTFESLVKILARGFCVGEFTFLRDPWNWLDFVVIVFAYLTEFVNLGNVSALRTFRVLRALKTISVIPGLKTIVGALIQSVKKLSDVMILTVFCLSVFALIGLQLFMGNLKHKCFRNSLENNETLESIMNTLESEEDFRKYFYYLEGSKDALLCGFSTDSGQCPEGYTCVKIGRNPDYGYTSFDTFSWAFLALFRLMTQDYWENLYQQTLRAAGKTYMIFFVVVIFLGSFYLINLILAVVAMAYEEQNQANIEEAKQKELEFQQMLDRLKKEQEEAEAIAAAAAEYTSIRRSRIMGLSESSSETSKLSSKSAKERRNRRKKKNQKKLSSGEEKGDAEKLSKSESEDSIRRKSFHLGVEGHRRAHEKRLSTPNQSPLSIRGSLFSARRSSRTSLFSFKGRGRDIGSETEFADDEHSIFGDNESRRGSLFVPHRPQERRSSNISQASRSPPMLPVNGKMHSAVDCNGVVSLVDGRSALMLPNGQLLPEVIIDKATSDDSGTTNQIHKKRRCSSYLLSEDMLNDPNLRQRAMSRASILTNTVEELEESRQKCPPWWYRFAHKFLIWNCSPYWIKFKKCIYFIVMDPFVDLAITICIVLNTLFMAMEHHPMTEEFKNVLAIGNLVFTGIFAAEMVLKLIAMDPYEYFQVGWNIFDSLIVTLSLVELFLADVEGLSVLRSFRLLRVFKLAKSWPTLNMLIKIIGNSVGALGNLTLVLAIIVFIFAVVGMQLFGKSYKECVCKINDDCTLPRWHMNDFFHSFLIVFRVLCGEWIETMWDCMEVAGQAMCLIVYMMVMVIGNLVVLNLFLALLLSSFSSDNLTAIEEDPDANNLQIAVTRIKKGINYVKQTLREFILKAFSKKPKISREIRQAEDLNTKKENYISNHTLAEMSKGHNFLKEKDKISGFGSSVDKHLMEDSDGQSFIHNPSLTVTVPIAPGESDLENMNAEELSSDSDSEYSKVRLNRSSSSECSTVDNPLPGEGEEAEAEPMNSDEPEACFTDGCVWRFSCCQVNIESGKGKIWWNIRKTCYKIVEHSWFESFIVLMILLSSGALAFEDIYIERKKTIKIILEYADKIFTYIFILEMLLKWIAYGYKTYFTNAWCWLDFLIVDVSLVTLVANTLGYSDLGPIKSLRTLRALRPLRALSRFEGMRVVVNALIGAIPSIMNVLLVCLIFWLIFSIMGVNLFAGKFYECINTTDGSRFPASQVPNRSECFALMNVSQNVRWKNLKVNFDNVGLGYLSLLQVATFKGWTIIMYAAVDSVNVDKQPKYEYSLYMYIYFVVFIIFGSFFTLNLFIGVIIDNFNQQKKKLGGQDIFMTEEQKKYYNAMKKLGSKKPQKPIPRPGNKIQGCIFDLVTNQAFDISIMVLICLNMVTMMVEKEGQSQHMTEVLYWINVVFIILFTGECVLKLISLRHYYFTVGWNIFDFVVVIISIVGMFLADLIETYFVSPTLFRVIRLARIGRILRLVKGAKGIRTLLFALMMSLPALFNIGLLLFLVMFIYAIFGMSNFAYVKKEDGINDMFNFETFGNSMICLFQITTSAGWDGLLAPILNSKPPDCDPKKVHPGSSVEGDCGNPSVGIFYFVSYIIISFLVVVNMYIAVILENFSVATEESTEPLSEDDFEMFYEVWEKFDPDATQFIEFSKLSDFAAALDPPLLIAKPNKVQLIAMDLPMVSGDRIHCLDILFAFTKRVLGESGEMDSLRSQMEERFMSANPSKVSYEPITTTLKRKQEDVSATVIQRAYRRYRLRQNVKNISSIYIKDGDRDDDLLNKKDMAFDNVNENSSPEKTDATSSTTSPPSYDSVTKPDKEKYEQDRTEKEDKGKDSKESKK

This assay concerns the target T1, Nav1.7 voltage-gated sodium channel (Homo sapiens, UniProt Q15858).
T1 construct: Gene(s) encoding the full-length protein of the voltage-gated sodium channel of interest are cloned and expressed; expressed in transfected cells
The assay can be described thus: Whole-cell voltage clamp electrophysiology assay. To be noted: cells stably expressing the voltage-gated sodium channel of interest. It is filed as cell-based. In a few lines: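 Cells expressing full-length channel, exposed to drug by integrated pipetting on automated patch-clamp platforms or by microperfusion in conventional whole-cell patch clamp. Channels activated by a voltage protocol depolarising from a defined holding potential; buffers per platform manufacturer.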
The compound `COc1ncc(-c2cccc3c2C[C@H](NC(=O)c2ccc(COCC(F)(F)F)nc2)CO3)cc1F` [Example 193, N-[(3S)-5-(5-fluoro-6-methoxypyridin-3-yl)-3,4-dihydro-2H-chromen-3-yl]-6-[(2,2,2-trifluoroethoxy)methyl]nicotinamide] gave an IC50 of 158 nM.
Compound `COc1ncc(-c2cccc3c2C[C@H](NC(=O)c2ccc(COCC(F)(F)F)nc2)CO3)cn1` [Example 194, N-[(3S)-5-(2-methoxypyrimidin-5-yl)-3,4-dihydro-2H-chromen-3-yl]-6-[(2,2,2-trifluoroethoxy)methyl]nicotinamide] gave an IC50 of 200 nM.
Compound `COc1ncc(-c2cccc3c2C[C@H](NC(=O)c2cnc(NCCC(F)(F)F)nc2)CO3)cn1` [Example 195, N-[(3S)-5-(2-methoxypyrimidin-5-yl)-3,4-dihydro-2H-chromen-3-yl]-2-[(3,3,3-trifluoropropyl)amino]pyrimidine-5-carboxamide] showed an IC50 of 398 nM. Compared with the last compound, the IC50 is about 2-fold higher.
`CN(CC(F)(F)F)C(=O)c1ccc(C(=O)N[C@@H]2COc3cccc(-c4cnc(C5CC5)nc4)c3C2)cn1` [Example 196, N^5-[(3S)-5-(2-cyclopropylpyrimidin-5-yl)-3,4-dihydro-2H-chromen-3-yl]-N^2-methyl-N^2-(2,2,2-trifluoroethyl)pyridine-2,5-dicarboxamide]: the half-maximal inhibitory concentration (IC50) was 501 nM.
The figure for `O=C(N[C@@H]1COc2cccc(-c3cnc(C4CC4)nc3)c2C1)c1ccc(C(=O)NCCC(F)(F)F)nc1` [Example 197, N^5-[(3S)-5-(2-cyclopropylpyrimidin-5-yl)-3,4-dihydro-2H-chromen-3-yl]-N^2-(3,3,3-trifluoropropyl)pyridine-2,5-dicarboxamide] is 158 nM.
The figure for `CN(CCC(F)(F)F)C(=O)c1ccc(C(=O)N[C@@H]2COc3cccc(-c4cnc(C5CC5)nc4)c3C2)cn1` [Example 198, N^5-[(3S)-5-(2-cyclopropylpyrimidin-5-yl)-3,4-dihydro-2H-chromen-3-yl]-N^2-methyl-N^2-(3,3,3-trifluoropropyl)pyridine-2,5-dicarboxamide] is 501 nM; for `O=C(N[C@@H]1COc2cccc(-c3cnc(C4CC4)nc3)c2C1)c1ccn(CCC(F)(F)F)c(=O)c1` [Example 199, N-[(3S)-5-(2-cyclopropylpyrimidin-5-yl)-3,4-dihydro-2H-chromen-3-yl]-2-oxo-1-(3,3,3-trifluoropropyl)-1,2-dihydropyridine-4-carboxamide] it is 501 nM; for `COc1ncc(-c2cccc3c2C[C@H](NC(=O)c2cnc(NCCC(F)(F)F)nc2)CO3)cc1F` [Example 200, N-[(3S)-5-(5-fluoro-6-methoxypyridin-3-yl)-3,4-dihydro-2H-chromen-3-yl]-2-[(3,3,3-trifluoropropyl)amino]pyrimidine-5-carboxamide] it is 316 nM.
`Cc1ncc(-c2cccc3c2C[C@H](NC(=O)c2cnc(NCCC(F)(F)F)nc2)CO3)cn1` [Example 201, N-[(3S)-5-(2-methylpyrimidin-5-yl)-3,4-dihydro-2H-chromen-3-yl]-2-[(3,3,3-trifluoropropyl)amino]pyrimidine-5-carboxamide] showed a concentration for half-maximal inhibition (IC50) of 398 nM.
With `Cc1cnc(-c2cccc3c2C[C@H](NC(=O)c2ccc(OCCOCC(F)(F)F)nc2)CO3)c(C)n1` [Example 202, N-[(3S)-5-(3,5-dimethylpyrazin-2-yl)-3,4-dihydro-2H-chromen-3-yl]-6-[2-(2,2,2-trifluoroethoxy)ethoxy]nicotinamide], the IC50 is 794 nM.
On to `Cc1ncc(-c2cccc3c2C[C@H](NC(=O)c2ccc(COCC(F)(F)F)nc2)CO3)cn1` [Example 203, N-[(3S)-5-(2-methylpyrimidin-5-yl)-3,4-dihydro-2H-chromen-3-yl]-6-[(2,2,2-trifluoroethoxy)methyl]nicotinamide], for which the IC50 was 200 nM.
In turn, `COc1ncc(-c2cccc3c2C[C@H](NC(=O)c2ccc(OC4CCOCC4)nc2)CO3)cc1C(=O)N(C)C` [Example 204, 2-methoxy-N,N-dimethyl-5-[(3S)-3-({[6-(tetrahydro-2H-pyran-4-yloxy)pyridin-3-yl]carbonyl}amino)-3,4-dihydro-2H-chromen-5-yl]nicotinamide] had a half-inhibitory concentration (IC50) of 7940 nM.
For the compound `CNC(=O)c1cc(-c2cccc3c2C[C@H](NC(=O)c2ccc(OC(C)C)nc2)CO3)cnc1OC` [Example 205, 5-[(3S)-3-{[(6-isopropoxypyridin-3-yl)carbonyl]amino}-3,4-dihydro-2H-chromen-5-yl]-2-methoxy-N-methylnicotinamide], the IC50 was 1260 nM. This IC50 lies about 6.3-fold lower than the previous one.
With `CNC(=O)c1cc(-c2cccc3c2C[C@H](NC(=O)c2ccc(OC4CCOCC4)nc2)CO3)cnc1OC` [Example 206, 2-methoxy-N-methyl-5-[(3S)-3-({[6-(tetrahydro-2H-pyran-4-yloxy)pyridin-3-yl]carbonyl}amino)-3,4-dihydro-2H-chromen-5-yl]nicotinamide], the IC50 is 3160 nM.
`COc1ncc(-c2cccc3c2C[C@H](NC(=O)c2ccc(OC(C)C)nc2)CO3)cc1C(=O)N(C)C` [Example 207, 5-[(3S)-3-{[(6-isopropoxypyridin-3-yl)carbonyl]amino}-3,4-dihydro-2H-chromen-5-yl]-2-methoxy-N,N-dimethylnicotinamide]: inhibition was half-maximal at 3980 nM (IC50). The IC50 values of the last two compounds are within 1.5-fold of each other.
Regarding `COc1ncc(-c2cccc3c2C[C@H](NC(=O)c2ccc(OCC(F)(F)F)nc2)CO3)cc1C(=O)N(C)C` [Example 208, 2-methoxy-N,N-dimethyl-5-[(3S)-3-({[6-(2,2,2-trifluoroethoxy)pyridin-3-yl]carbonyl}amino)-3,4-dihydro-2H-chromen-5-yl]nicotinamide], the half-inhibitory concentration (IC50) was 1580 nM.
The figure for `CN(C)C(=O)c1ncc(-c2cccc3c2C[C@H](NC(=O)c2ccc(OCCOCC(F)(F)F)nc2)CO3)cn1` [Example 209, N,N-dimethyl-5-{(3S)-3-[({6-[2-(2,2,2-trifluoroethoxy)ethoxy]pyridin-3-yl}carbonyl)amino]-3,4-dihydro-2H-chromen-5-yl}pyrimidine-2-carboxamide] is 7940 nM; for `O=C(N[C@@H]1COc2cccc(-c3ccc(CO)nc3)c2C1)c1ccc(OCCOCC(F)(F)F)nc1` [Example 210, N-{(3S)-5-[6-(hydroxymethyl)pyridin-3-yl]-3,4-dihydro-2H-chromen-3-yl}-6-[2-(2,2,2-trifluoroethoxy)ethoxy]nicotinamide] it is 100 nM; for `O=C(N[C@@H]1COc2cccc(-c3ccc(CO)nc3)c2C1)c1ccc(OCCCF)nc1` [Example 211, 6-(3-fluoropropoxy)-N-{(3S)-5-[6-(hydroxymethyl)pyridin-3-yl]-3,4-dihydro-2H-chromen-3-yl}nicotinamide] it is 200 nM.
`O=C(N[C@@H]1COc2cccc(-c3ccc(CO)nc3)c2C1)c1ccc(OCC(F)(F)F)nc1` [Example 212, N-{(3S)-5-[6-(hydroxymethyl)pyridin-3-yl]-3,4-dihydro-2H-chromen-3-yl}-6-(2,2,2-trifluoroethoxy)nicotinamide]: the half-inhibitory concentration (IC50) was 100 nM.
The figure for `O=C(N[C@@H]1COc2cccc(-c3cnc(CO)cn3)c2C1)c1ccc(OCCOCC(F)(F)F)nc1` [Example 213, N-{(3S)-5-[5-(hydroxymethyl)pyrazin-2-yl]-3,4-dihydro-2H-chromen-3-yl}-6-[2-(2,2,2-trifluoroethoxy)ethoxy]nicotinamide] is 316 nM.
